According to paper PMC10364322, “Evaluation of chronic drug-induced electrophysiological and cytotoxic effects using human-induced pluripotent stem cell-derived cardiomyocytes (hiPSC-CMs)” (Frontiers in Pharmacology, 2023):
Like-named read-outs stand apart in the source and are kept apart here.

What was measured:
[1] = test system: hiPSC-CMs (iCell-Cardiomyocytes^2)
Description: (§1) Cells were seeded according to the instructions of the cell provider, in fibronectin-coated 48-well MEA plates (Axion Cytoview Plates, M768-tMEA-48B) at a density suited to form a monolayer (i.e., 50 K/well) and maintained in culture in a stage incubator (37°C, 5% CO2).
(§2) At least 4 h before the beginning of the baseline measurements, a full medium exchange was performed (to a final volume of 400 µL per well). Neat compounds were dissolved in 100% DMSO at a stock concentration 1000-fold the highest target concentration. […] Afterwards, these stock solutions were diluted with Maintenance medium (CDi), to 10-fold the intended concentration. The final DMSO concentration in test solutions and vehicle control was 0.1%.
(§3) Spontaneous electrical activity was recorded in hiPSC-CMs monolayers as field potentials using the Maestro Pro MEA instrument (Axion Biosystems, Atlanta, GA, United States), which allows the maintenance of accurate temperature and CO2 levels (37°C, 5% CO2). After the plate was placed in the Maestro Pro and allowed to equilibrate for about 10 min, baseline acquisition of field potential and impedance signals was initiated and lasted for 5 min each. […] As impedance measures resistance of an applied alternating current through the hiPSC-CMs monolayer, a reduction in the attachment of hiPSC-CMs to the bottom of the well due to cell death or changes in the monolayer morphology, causes a drop in the impedance signal.
The potential presence of various arrhythmic events was evaluated and noted during the data analysis.
(§4) After the acquisition of all timepoint measurements, raw data were loaded into the data analysis software Axion Cardiac Analysis Tool (V.3.2.3). […] A.csv file containing information on the FP parameters per well, per time point, was then generated and used as input to the in-house data management system (SPEcII v.3.4, Unlimit-IT, Geel, Belgium), where descriptive statistics were calculated. Summary values at different time points after compound addition are expressed as percent change from baseline and shown as mean ± standard deviation (SD).
(§5) The nonparametric Wilcoxon-Mann Whitney Test was used to compare the percent change from the baseline (Δ%) value between the group treated with the compound at a given concentration and the group treated with the DMSO at each matching time points. A two-sided test at 5% significance level was considered. […] To assess the physiological relevance of changes, a tolerance interval of DMSO experiments was calculated at each time point, for each parameter. […] TIs indicate an interval where, with a certain confidence level (1- α = 0.95), a specified proportion (p = 0.80) of percent change for DMSO data falls. The lower and upper limits based on the TI values were used as cut-offs for the interpretation of the changes. For the cytotoxicity assays, measurements of fluorescence (after background fluorescence subtraction) from wells treated with the compounds were normalized by the average value of vehicle experiments (DMSO 0.1%) to obtain a DMSO-corrected, delta/delta percent change. Experiments from each condition, as delta/delta percent, were averaged and expressed as mean ± SD. Statistical analysis was performed using a non-parametric test (Kruskal-Wallis) and each treatment condition was compared to the relative DMSO 0.1%. Differences were considered statistically significant when the p-value was smaller than 0.05.

[2] = test system: hiPSC-CMs (iCell-Cardiomyocytes^2); experiment: MEA impedance (cytotoxicity readout) in hiPSC-CMs
Description: as §1, §2, §3, §4, §5

BR (beating rate), % change from baseline ([1]; 0.1 µM, 2h): 2±1%
FPD (field-potential duration), % change from baseline ([1]; 0.1 µM, 2h): 3.2±0.7%
FPDc (field-potential duration corrected by beat-rate), % change from baseline ([1]; 0.1 µM, 2h): 4.1±0.9%
BR (beating rate), % change from baseline ([1]; 0.1 µM, 24h): 2±2%
FPD (field-potential duration), % change from baseline ([1]; 0.1 µM, 24h): 8.9±2.4%
FPDc (field-potential duration corrected by beat-rate), % change from baseline ([1]; 0.1 µM, 24h): 9.7±1.6%
BR (beating rate), % change from baseline ([1]; 0.1 µM, 48h): -1±3%
FPD (field-potential duration), % change from baseline ([1]; 0.1 µM, 48h): 8.3±2.5%
FPDc (field-potential duration corrected by beat-rate), % change from baseline ([1]; 0.1 µM, 48h): 8±2.9%
BR (beating rate), % change from baseline ([1]; 0.1 µM, 72h): 0±2%
FPD (field-potential duration), % change from baseline ([1]; 0.1 µM, 72h): 7.8±1.4%
FPDc (field-potential duration corrected by beat-rate), % change from baseline ([1]; 0.1 µM, 72h): 7.6±1.5%
BR (beating rate), % change from baseline ([1]; 0.1 µM, 96h): -5±2%
FPD (field-potential duration), % change from baseline ([1]; 0.1 µM, 96h): 8.9±2.9%
FPDc (field-potential duration corrected by beat-rate), % change from baseline ([1]; 0.1 µM, 96h): 7.1±3.5%
BR (beating rate), % change from baseline ([1]; 0.3 µM, 2h): 2±3%
FPD (field-potential duration), % change from baseline ([1]; 0.3 µM, 2h): 2.9±2.5%
FPDc (field-potential duration corrected by beat-rate), % change from baseline ([1]; 0.3 µM, 2h): 3.8±2.3%
BR (beating rate), % change from baseline ([1]; 0.3 µM, 24h): 2±2%
FPD (field-potential duration), % change from baseline ([1]; 0.3 µM, 24h): 12.5±1.8%
FPDc (field-potential duration corrected by beat-rate), % change from baseline ([1]; 0.3 µM, 24h): 13±1.9%
BR (beating rate), % change from baseline ([1]; 0.3 µM, 48h): -4±3%
FPD (field-potential duration), % change from baseline ([1]; 0.3 µM, 48h): 12.1±2.3%
FPDc (field-potential duration corrected by beat-rate), % change from baseline ([1]; 0.3 µM, 48h): 10.4±2.2%
BR (beating rate), % change from baseline ([1]; 0.3 µM, 72h): -4±1%
FPD (field-potential duration), % change from baseline ([1]; 0.3 µM, 72h): 9.2±4.1%
FPDc (field-potential duration corrected by beat-rate), % change from baseline ([1]; 0.3 µM, 72h): 7.7±3.7%
BR (beating rate), % change from baseline ([1]; 0.3 µM, 96h): -6±2%
FPD (field-potential duration), % change from baseline ([1]; 0.3 µM, 96h): 10.3±1.1%
FPDc (field-potential duration corrected by beat-rate), % change from baseline ([1]; 0.3 µM, 96h): 8.2±1.1%
BR (beating rate), % change from baseline ([1]; 1 µM, 2h): 3±2%
FPD (field-potential duration), % change from baseline ([1]; 1 µM, 2h): 3.3±5.6%
FPDc (field-potential duration corrected by beat-rate), % change from baseline ([1]; 1 µM, 2h): 4.5±5%
BR (beating rate), % change from baseline ([1]; 1 µM, 24h): 1±4%
FPD (field-potential duration), % change from baseline ([1]; 1 µM, 24h): 19.3±18.2%
FPDc (field-potential duration corrected by beat-rate), % change from baseline ([1]; 1 µM, 24h): 19.6±16.4%
BR (beating rate), % change from baseline ([1]; 1 µM, 48h): -4±4%
FPD (field-potential duration), % change from baseline ([1]; 1 µM, 48h): 20.8±13.7%
FPDc (field-potential duration corrected by beat-rate), % change from baseline ([1]; 1 µM, 48h): 19±15%
BR (beating rate), % change from baseline ([1]; 1 µM, 72h): -6±2%
FPD (field-potential duration), % change from baseline ([1]; 1 µM, 72h): 17.3±16.7%
FPDc (field-potential duration corrected by beat-rate), % change from baseline ([1]; 1 µM, 72h): 15.4±17.1%
BR (beating rate), % change from baseline ([1]; 1 µM, 96h): -6±5%
FPD (field-potential duration), % change from baseline ([1]; 1 µM, 96h): 19±15.6%
FPDc (field-potential duration corrected by beat-rate), % change from baseline ([1]; 1 µM, 96h): 16.5±16.6%
BR (beating rate), % change from baseline ([1]; 3 µM, 72h): -5±2%
FPD (field-potential duration), % change from baseline ([1]; 3 µM, 72h): 12.9±3.8%
FPDc (field-potential duration corrected by beat-rate), % change from baseline ([1]; 3 µM, 72h): 11.2±3%
BR (beating rate), % change from baseline ([1]; 3 µM, 96h): -5±5%
FPD (field-potential duration), % change from baseline ([1]; 3 µM, 96h): 14.4±6.3%
FPDc (field-potential duration corrected by beat-rate), % change from baseline ([1]; 3 µM, 96h): 12.1±5%
BR (beating rate), % change from baseline ([1]; 3 µM, 2h): 3±2%
FPD (field-potential duration), % change from baseline ([1]; 3 µM, 2h): 4.9±3.1%
FPDc (field-potential duration corrected by beat-rate), % change from baseline ([1]; 3 µM, 2h): 6.1±3.3%
BR (beating rate), % change from baseline ([1]; 3 µM, 24h): 1±4%
FPD (field-potential duration), % change from baseline ([1]; 3 µM, 24h): 14.6±2.3%
FPDc (field-potential duration corrected by beat-rate), % change from baseline ([1]; 3 µM, 24h): 15.2±2.8 %
BR (beating rate), % change from baseline ([1]; 3 µM, 48h): -5±2%
FPD (field-potential duration), % change from baseline ([1]; 3 µM, 48h): 14.5±3.8%
FPDc (field-potential duration corrected by beat-rate), % change from baseline ([1]; 3 µM, 48h): 12.5±3%
Structure (SMILES): O=C(O)COCCN1CCN(C(c2ccccc2)c2ccc(Cl)cc2)CC1 (centres unmarked) [Cetirizine]
Imp (impedance), % change from baseline ([2]; 0.1 µM, 2h): -4±4%
Imp (impedance), % change from baseline ([2]; 0.1 µM, 24h): -8±1%
Imp (impedance), % change from baseline ([2]; 0.1 µM, 48h): -7±2%
Imp (impedance), % change from baseline ([2]; 0.1 µM, 72h): -7±3%
Imp (impedance), % change from baseline ([2]; 0.1 µM, 96h): -7±4%
Imp (impedance), % change from baseline ([2]; 0.3 µM, 2h): -3±3%
Imp (impedance), % change from baseline ([2]; 0.3 µM, 24h): -8±2%
Imp (impedance), % change from baseline ([2]; 0.3 µM, 48h): -5±4%
Imp (impedance), % change from baseline ([2]; 0.3 µM, 72h): -5±6%
Imp (impedance), % change from baseline ([2]; 0.3 µM, 96h): -5±6%
Imp (impedance), % change from baseline ([2]; 1 µM, 2h): -4±2%
Imp (impedance), % change from baseline ([2]; 1 µM, 24h): -7±5%
Imp (impedance), % change from baseline ([2]; 1 µM, 48h): -4±7%
Imp (impedance), % change from baseline ([2]; 1 µM, 72h): -5±6%
Imp (impedance), % change from baseline ([2]; 1 µM, 96h): -4±9%
Imp (impedance), % change from baseline ([2]; 3 µM, 72h): -8±7%
Imp (impedance), % change from baseline ([2]; 3 µM, 96h): -6±7%
Imp (impedance), % change from baseline ([2]; 3 µM, 2h): -3±2%
Imp (impedance), % change from baseline ([2]; 3 µM, 24h): -7±4%
Imp (impedance), % change from baseline ([2]; 3 µM, 48h): -3±6%
